The source of these data is ChEMBL document CHEMBL3632622, “Synthesis and biological evaluation of novel N-phenyl ureidobenzenesulfonate derivatives as potential anticancer agents. Part 2. Modulation of the ring B” (Eur J Med Chem, 2015).

A word on the IC50: it is the concentration needed to halve the response being measured.

The first assay has as its system M21. In words: Antiproliferative activity against human M21 cells assessed as growth inhibition incubated for 48 hrs by sulforhodamine B assay. It counts as functional, cell-based. To be noted: M21, 48 h. For orientation: The SRB assay estimates cell density from bound dye.
As to `O=C(NCCCl)Nc1ccc(S(=O)(=O)Oc2cc(F)c(F)c(F)c2)cc1`, the IC50 amounted to 11.3 µM.
As for `CCCc1ccc(OS(=O)(=O)c2ccc(NC(=O)NCCCl)cc2)cc1`, the concentration for half-maximal inhibition (IC50) stood at 12 µM.
Turning to `COc1ccc(OS(=O)(=O)c2ccc(NC(=O)NCCCl)cc2)cc1OC`, the IC50 worked out at 12 µM.
`Cc1cc(C)cc(OS(=O)(=O)c2ccc(NC(=O)NCCCl)cc2)c1`: the half-inhibitory concentration (IC50) was found to be 1.7 µM.
On the same count and under the same terms, the result for `Cc1ccc(OS(=O)(=O)c2ccc(NC(=O)NCCCl)cc2)cc1` reads 17 µM.
As for `CC(C)(C)c1ccc(OS(=O)(=O)c2ccc(NC(=O)NCCCl)cc2)cc1`, the half-inhibitory concentration (IC50) came out at 18 µM.
`O=C(NCCCl)Nc1ccc(S(=O)(=O)Oc2cccc([N+](=O)[O-])c2)cc1`: the IC50 was 17 µM.
Same read-out and setting: in the case of `N#Cc1ccc(OS(=O)(=O)c2ccc(NC(=O)NCCCl)cc2)cc1` it was 19 µM; in that of `COc1ccccc1OS(=O)(=O)c1ccc(NC(=O)NCCCl)cc1`, 15 µM; in that of `Cc1cccc(OS(=O)(=O)c2ccc(NC(=O)NCCCl)cc2)c1`, 6.2 µM.
Consider `CCc1ccc(OS(=O)(=O)c2ccc(NC(=O)NCCCl)cc2)cc1`, for which the IC50 came out at 16 µM.

System in another assay: not listed separately
Description: Antiproliferative activity against human HT1080 cells assessed as growth inhibition incubated for 48 hrs by sulforhodamine B assay. It counts as functional, cell-based, HT-1080. The note with it: Homo sapiens, HT-1080, 48 h; read-out: IC50.
Regarding `CCNC(=O)Nc1ccc(S(=O)(=O)Oc2ccccc2CC)cc1`, the IC50 was found to be 0.36 µM.
On the same count and under the same terms, in the case of `O=C(NCCCl)Nc1ccc(S(=O)(=O)Oc2cc(F)c(F)c(F)c2)cc1` it was 9.8 µM; in that of `CCCc1ccc(OS(=O)(=O)c2ccc(NC(=O)NCCCl)cc2)cc1`, 5.2 µM.
In the case of `COc1ccc(OS(=O)(=O)c2ccc(NC(=O)NCCCl)cc2)cc1OC`, the 50% inhibitory concentration (IC50) was determined as 11 µM.
Regarding `Cc1cc(C)cc(OS(=O)(=O)c2ccc(NC(=O)NCCCl)cc2)c1`, the concentration for half-maximal inhibition (IC50) amounted to 2.4 µM.
Same read-out and setting: in the case of `Cc1ccc(OS(=O)(=O)c2ccc(NC(=O)NCCCl)cc2)cc1` it was 12 µM; in that of `CC(C)(C)c1ccc(OS(=O)(=O)c2ccc(NC(=O)NCCCl)cc2)cc1`, 6.8 µM; in that of `O=C(NCCCl)Nc1ccc(S(=O)(=O)Oc2cccc([N+](=O)[O-])c2)cc1`, 10 µM.
For `N#Cc1ccc(OS(=O)(=O)c2ccc(NC(=O)NCCCl)cc2)cc1`, the IC50 came to 14 µM.
In the case of `COc1ccccc1OS(=O)(=O)c1ccc(NC(=O)NCCCl)cc1`, the concentration for half-maximal inhibition (IC50) came out at 8.3 µM.
Regarding `Cc1cccc(OS(=O)(=O)c2ccc(NC(=O)NCCCl)cc2)c1`, the IC50 was determined as 5.8 µM.
For `CCc1ccc(OS(=O)(=O)c2ccc(NC(=O)NCCCl)cc2)cc1`, the half-inhibitory concentration (IC50) worked out at 9.8 µM.

Staying with this assay, now noted: ht-1080.
For the compound `O=C(NCCCl)Nc1ccc(S(=O)(=O)Oc2ccc(O)cc2)cc1`, the IC50 entry is listed as “Not Active”.
On to `CN(C)c1ccc(OS(=O)(=O)c2ccc(NC(=O)NCCCl)cc2)cc1`, for which the IC50 entry is given as “Not Active”.

For another assay, the system named is HT-29. In words: Antiproliferative activity against human HT-29 cells assessed as growth inhibition incubated for 48 hrs by sulforhodamine B assay. It counts as functional, cell-based. To be noted: HT-29, 48 h.
In the case of `O=C(NCCCl)Nc1ccc(S(=O)(=O)Oc2cc(F)c(F)c(F)c2)cc1`, the 50% inhibitory concentration (IC50) stood at 9.9 µM.
With `CCCc1ccc(OS(=O)(=O)c2ccc(NC(=O)NCCCl)cc2)cc1`, the half-maximal inhibitory concentration (IC50) stood at 11 µM.
Take `COc1ccc(OS(=O)(=O)c2ccc(NC(=O)NCCCl)cc2)cc1OC`: the IC50 is 13 µM.
On to `Cc1cc(C)cc(OS(=O)(=O)c2ccc(NC(=O)NCCCl)cc2)c1`, for which the IC50 stood at 1.8 µM.
Same read-out and setting: in the case of `Cc1ccc(OS(=O)(=O)c2ccc(NC(=O)NCCCl)cc2)cc1` it was 20 µM; in that of `CC(C)(C)c1ccc(OS(=O)(=O)c2ccc(NC(=O)NCCCl)cc2)cc1`, 15 µM; in that of `O=C(NCCCl)Nc1ccc(S(=O)(=O)Oc2cccc([N+](=O)[O-])c2)cc1`, 17 µM.
Regarding `N#Cc1ccc(OS(=O)(=O)c2ccc(NC(=O)NCCCl)cc2)cc1`, the IC50 stood at 18 µM.
On the same count and under the same terms, the result for `COc1ccccc1OS(=O)(=O)c1ccc(NC(=O)NCCCl)cc1` reads 13 µM; that for `Cc1cccc(OS(=O)(=O)c2ccc(NC(=O)NCCCl)cc2)c1`, 6 µM.
Turning to `CCc1ccc(OS(=O)(=O)c2ccc(NC(=O)NCCCl)cc2)cc1`, the half-maximal inhibitory concentration (IC50) was 15 µM.

The test system of the next assay is MCF7. Description: Antiproliferative activity against human MCF7 cells assessed as growth inhibition incubated for 48 hrs by sulforhodamine B assay. It counts as functional, cell-based. The note with it: MCF7, 48 h.
In the case of `O=C(NCCCl)Nc1ccc(S(=O)(=O)Oc2cc(F)c(F)c(F)c2)cc1`, the IC50 came out at 11.3 µM.
The same measure, in the same setting: the result for `CCCc1ccc(OS(=O)(=O)c2ccc(NC(=O)NCCCl)cc2)cc1` reads 13 µM; that for `COc1ccc(OS(=O)(=O)c2ccc(NC(=O)NCCCl)cc2)cc1OC`, 15 µM; that for `Cc1cc(C)cc(OS(=O)(=O)c2ccc(NC(=O)NCCCl)cc2)c1`, 2.9 µM.
Still for that read-out and setting: in the case of `Cc1ccc(OS(=O)(=O)c2ccc(NC(=O)NCCCl)cc2)cc1` it was 19 µM; in that of `CC(C)(C)c1ccc(OS(=O)(=O)c2ccc(NC(=O)NCCCl)cc2)cc1`, 17 µM.
As for `O=C(NCCCl)Nc1ccc(S(=O)(=O)Oc2cccc([N+](=O)[O-])c2)cc1`, the IC50 amounted to 18 µM.
Turning to `N#Cc1ccc(OS(=O)(=O)c2ccc(NC(=O)NCCCl)cc2)cc1`, the IC50 was 19 µM.
Turning to `COc1ccccc1OS(=O)(=O)c1ccc(NC(=O)NCCCl)cc1`, the IC50 stood at 19 µM.
For the compound `Cc1cccc(OS(=O)(=O)c2ccc(NC(=O)NCCCl)cc2)c1`, the IC50 was 7.2 µM.
Regarding `CCc1ccc(OS(=O)(=O)c2ccc(NC(=O)NCCCl)cc2)cc1`, the IC50 was determined as 16 µM.
